According to ChEMBL document CHEMBL1201862, “PubChem BioAssay data set” (2004):
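96-well plates; 48 h exposure; 5 concentrations. Endpoints by linear interpolation between flanking doses. Not reached: highest tested concentration assigned. At the GI50, growth is halved.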 Active and inactive are the calls of the source. Cut-off read from the data, not from the text of the source: active = GI50 up to about 1.1 µM and inactive = higher.

How the values were obtained:
Experiment in all cases: NCI-60 cell line screen, 48 h
HCT-15 = system: HCT-15
KM12 = system: KM12
M14 = system: M14
MDA-MB-231 = system: MDA-MB-231
MOLT-4 = system: MOLT-4
NCI-H23 = system: NCI-H23
NCI-H522 = system: NCI-H522
OVCAR-3 = system: OVCAR-3
OVCAR-4 = system: OVCAR-4
OVCAR-5 = system: OVCAR-5
RXF 393 = system: RXF 393
SF-268 = system: SF-268
SF-539 = system: SF-539
SK-MEL-5 = system: SK-MEL-5
SR = system: SR
SW-620 = system: SW-620
U-251 = system: U-251
UACC-257 = system: UACC-257
HL-60 = system: HL-60
DU-145 = system: DU-145

Row | SMILES | GI50 (HCT-15) | GI50 (KM12) | GI50 (M14) | GI50 (MDA-MB-231) | GI50 (MOLT-4) | GI50 (NCI-H23) | GI50 (NCI-H522) | GI50 (OVCAR-3) | GI50 (OVCAR-4) | GI50 (OVCAR-5) | GI50 (RXF 393) | GI50 (SF-268) | GI50 (SF-539) | GI50 (SK-MEL-5) | GI50 (SR) | GI50 (SW-620) | GI50 (U-251) | GI50 (UACC-257) | GI50 (HL-60) | GI50 (DU-145)
1 | COc1ccc(C2C3COc4ccccc4C3=NN2c2ccccc2)cc1 (stereo not given) | > 100 µM | > 100 µM (inactive) | > 100 µM (inactive) | > 100 µM (inactive) | 92.5 µM (inactive) | > 100 µM (inactive) | > 100 µM (inactive) | > 100 µM (inactive) | > 100 µM (inactive) | > 100 µM (inactive) | > 100 µM (inactive) | > 100 µM (inactive) | > 100 µM (inactive) | > 100 µM (inactive) | 31.6 µM (inactive) | > 100 µM (inactive) | > 100 µM (inactive) | > 100 µM (inactive) | – | –
2 | CC(=O)OCC1OC(N2C(=O)/C(=N\NC(N)=S)c3ccc([N+](=O)[O-])cc32)C(OC(C)=O)C1OC(C)=O (stereo not given) | 76 µM | 38.5 µM (inactive) | 70.5 µM (inactive) | – | 15.3 µM (inactive) | 16.4 µM (inactive) | 15 µM (inactive) | 26.4 µM (inactive) | 19 µM (inactive) | 61.2 µM (inactive) | 20.2 µM (inactive) | 30.8 µM (inactive) | 24.1 µM (inactive) | 32 µM (inactive) | 5.98 µM (inactive) | 36.9 µM (inactive) | 28.1 µM (inactive) | 37.4 µM (inactive) | 16.6 µM (inactive) | –
3 | CC(C)C1COC(C(C)(C)C2=N[C@@H](C(C)C)CO2)=N1 (stereo not given in full) | > 100 µM | > 100 µM (inactive) | > 100 µM (inactive) | – | > 100 µM (inactive) | > 100 µM (inactive) | > 100 µM (inactive) | > 100 µM (inactive) | > 100 µM (inactive) | > 100 µM (inactive) | > 100 µM (inactive) | > 100 µM (inactive) | > 100 µM (inactive) | > 100 µM (inactive) | > 100 µM (inactive) | > 100 µM (inactive) | > 100 µM (inactive) | > 100 µM (inactive) | > 100 µM (inactive) | –
4 | O/N=C\c1c(O)ccc2ccccc12 | 32.2 µM | 42.3 µM (inactive) | 68.2 µM (inactive) | 46.3 µM (inactive) | – | 83.6 µM (inactive) | – | 20.2 µM (inactive) | – | > 100 µM (inactive) | 35.2 µM (inactive) | 31.6 µM (inactive) | 44 µM (inactive) | 46.7 µM (inactive) | 21.2 µM (inactive) | 73.6 µM (inactive) | 51.8 µM (inactive) | 71.9 µM (inactive) | 14.7 µM (inactive) | –
5 | NC(=O)NC(=O)C1CCC(=O)N1S(=O)(=O)c1ccc(Cl)cc1 (stereo not given) | > 100 µM | > 100 µM (inactive) | > 100 µM (inactive) | – | > 100 µM (inactive) | > 100 µM (inactive) | 63 µM (inactive) | > 100 µM (inactive) | > 100 µM (inactive) | – | > 100 µM (inactive) | > 100 µM (inactive) | > 100 µM (inactive) | > 100 µM (inactive) | > 100 µM (inactive) | > 100 µM (inactive) | > 100 µM (inactive) | > 100 µM (inactive) | > 100 µM (inactive) | –
6 | COc1ccc(NC(=O)/C(=N/NC(N)=S)C2C(=O)NC(=S)NC2=O)c(OC)c1 | > 100 µM | > 100 µM (inactive) | > 100 µM (inactive) | > 100 µM (inactive) | > 100 µM (inactive) | > 100 µM (inactive) | > 100 µM (inactive) | > 100 µM (inactive) | > 100 µM (inactive) | > 100 µM (inactive) | – | > 100 µM (inactive) | > 100 µM (inactive) | > 100 µM (inactive) | – | > 100 µM (inactive) | > 100 µM (inactive) | > 100 µM (inactive) | > 100 µM (inactive) | > 100 µM (inactive)
7 | COC(=N)CCCl | > 100 µM | > 100 µM (inactive) | > 100 µM (inactive) | – | > 100 µM (inactive) | > 100 µM (inactive) | 99.1 µM (inactive) | > 100 µM (inactive) | > 100 µM (inactive) | > 100 µM (inactive) | > 100 µM (inactive) | > 100 µM (inactive) | > 100 µM (inactive) | > 100 µM (inactive) | > 100 µM (inactive) | > 100 µM (inactive) | > 100 µM (inactive) | > 100 µM (inactive) | > 100 µM (inactive) | > 100 µM (inactive)
8 | COc1ccc(C(=O)Nc2ccn(CCOC(=O)c3ccc(OC)cc3)c(=O)n2)cc1 | > 100 µM | > 100 µM (inactive) | > 100 µM (inactive) | – | – | – | 46.1 µM (inactive) | > 100 µM (inactive) | > 100 µM (inactive) | > 100 µM (inactive) | 20.1 µM (inactive) | 43.9 µM (inactive) | > 100 µM (inactive) | > 100 µM (inactive) | > 100 µM (inactive) | > 100 µM (inactive) | 86.7 µM (inactive) | > 100 µM (inactive) | > 100 µM (inactive) | –
9 | N#CCCC1(CCC#N)CCCCCCC(CCC#N)(CCC#N)C(O)C1O (stereo not given) | > 100 µM | > 100 µM (inactive) | > 100 µM (inactive) | – | – | > 100 µM (inactive) | > 100 µM (inactive) | > 100 µM (inactive) | > 100 µM (inactive) | > 100 µM (inactive) | > 100 µM (inactive) | > 100 µM (inactive) | > 100 µM (inactive) | > 100 µM (inactive) | 65.3 µM (inactive) | > 100 µM (inactive) | > 100 µM (inactive) | > 100 µM (inactive) | – | > 100 µM (inactive)
10 | C=CCN1C(=O)CS/C1=N\NC(=O)c1c(C)nc2sccn12 | > 100 µM | > 100 µM (inactive) | – | – | > 100 µM (inactive) | > 100 µM (inactive) | > 100 µM (inactive) | > 100 µM (inactive) | – | > 100 µM (inactive) | > 100 µM (inactive) | > 100 µM (inactive) | > 100 µM (inactive) | > 100 µM (inactive) | > 100 µM (inactive) | > 100 µM (inactive) | > 100 µM (inactive) | > 100 µM (inactive) | > 100 µM (inactive) | –
11 | CCOC(=O)C(NC(=O)NC(C(=O)OCC)C(=O)OCC)C(=O)OCC | > 100 µM | – | > 100 µM (inactive) | – | > 100 µM (inactive) | > 100 µM (inactive) | > 100 µM (inactive) | > 100 µM (inactive) | – | > 100 µM (inactive) | > 100 µM (inactive) | > 100 µM (inactive) | > 100 µM (inactive) | > 100 µM (inactive) | > 100 µM (inactive) | > 100 µM (inactive) | > 100 µM (inactive) | > 10 µM (inactive) | – | > 100 µM (inactive)
12 | CCNC(=O)/C=C/CCC#Cc1ccc(-c2ccc(-c3cccs3)s2)s1 | > 100 µM | > 100 µM (inactive) | 5.61 µM (inactive) | – | > 100 µM (inactive) | > 100 µM (inactive) | > 100 µM (inactive) | > 100 µM (inactive) | > 100 µM (inactive) | > 100 µM (inactive) | > 100 µM (inactive) | > 100 µM (inactive) | > 100 µM (inactive) | 5.24 µM (inactive) | > 100 µM (inactive) | > 100 µM (inactive) | > 100 µM (inactive) | > 100 µM (inactive) | > 100 µM (inactive) | –
13 | CSc1n/c(=N\c2ccccc2)sn1-c1ccccc1 | 13.8 µM | 17.3 µM (inactive) | 10.7 µM (inactive) | – | 11.2 µM (inactive) | 14.1 µM (inactive) | 2.71 µM (inactive) | 18 µM (inactive) | 5.3 µM (inactive) | 17.3 µM (inactive) | 16.8 µM (inactive) | 19.6 µM (inactive) | 18.6 µM (inactive) | 11.2 µM (inactive) | 17.8 µM (inactive) | 12.3 µM (inactive) | 14.9 µM (inactive) | 20.3 µM (inactive) | 3.74 µM (inactive) | –
14 | CC1CCc2c(sc3ncnc(N/N=C/c4ccc(Cl)cc4)c23)C1 (stereo not given) | 32.3 µM | – | 28 µM (inactive) | – | 20.6 µM (inactive) | 32.8 µM (inactive) | 25.9 µM (inactive) | 35.4 µM (inactive) | – | > 100 µM (inactive) | 29.6 µM (inactive) | 25.1 µM (inactive) | > 10 µM (inactive) | 17.6 µM (inactive) | 21.6 µM (inactive) | 35.6 µM (inactive) | 31.9 µM (inactive) | 29.8 µM (inactive) | 19.2 µM (inactive) | –
15 | C=C1CC2CC(=O)C(O)C(C1)C2 (stereo not given) | > 100 µM | > 100 µM (inactive) | > 100 µM (inactive) | – | > 100 µM (inactive) | 90.8 µM (inactive) | > 100 µM (inactive) | > 100 µM (inactive) | – | > 100 µM (inactive) | > 100 µM (inactive) | > 100 µM (inactive) | > 100 µM (inactive) | > 100 µM (inactive) | > 100 µM (inactive) | > 100 µM (inactive) | – | > 100 µM (inactive) | > 100 µM (inactive) | > 100 µM (inactive)
16 | COc1cc(C(C)O)c(S(=O)(=O)CC(C)O)nn1 (stereo not given) | > 100 µM | > 100 µM (inactive) | > 100 µM (inactive) | – | 77.4 µM (inactive) | > 100 µM (inactive) | > 100 µM (inactive) | > 100 µM (inactive) | > 100 µM (inactive) | > 100 µM (inactive) | 85.3 µM (inactive) | – | > 100 µM (inactive) | > 100 µM (inactive) | 43.6 µM (inactive) | > 100 µM (inactive) | – | > 100 µM (inactive) | > 100 µM (inactive) | > 100 µM (inactive)
17 | CC(=O)O[C@]12CCCCCCC1C1(O)C(O)CCC[C@H]12 (stereo not given in full) | > 100 µM | > 100 µM (inactive) | > 100 µM (inactive) | – | > 100 µM (inactive) | > 100 µM (inactive) | > 100 µM (inactive) | – | > 100 µM (inactive) | – | > 100 µM (inactive) | > 100 µM (inactive) | – | > 100 µM (inactive) | > 100 µM (inactive) | > 100 µM (inactive) | > 100 µM (inactive) | > 100 µM (inactive) | > 10 µM (inactive) | –
